What all share (assay): NCI tumour cell line growth inhibition, 48 h
Test [1] relates to SF-268 CNS.
For test [2], the system named is IGROV1 ovarian.
Test [3] deals with 786-0 renal.
For test [4], the system named is MCF7 breast.
The subject of test [5] is COLO 205 colon.
Test [6] relates to SW-620 colon.
The subject of test [7] is LOX IMVI melanoma.
Test [8] relates to HCT-116 colon.
In test [9] the test system is KM20L2 colon.

The structures appear in SMILES notation. “And” between values parts separate entries of the source, which are not always exact repeats. Identical values can stand only once.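 The compound was tested at five concentrations on cells cultured in 96-well plates, with a 48-hour exposure period. Here, GI50 denotes the concentration required for 50% inhibition of growth. At the TGI there is no net growth.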

Take `O=C(Cc1ccccc1)NCCc1ccc(O)c(O)c1`: the TGI in [1], in [2], in test [3], in [4], in test [5] and in test [6] was more than 100 µM throughout. Moreover, the TGI in test [7] and in [8] was more than 100 µM each time.
As to `Cc1ccc(C2CC(=O)CC(c3ccc(C)cc3)C23C(=O)NC(=O)NC3=O)cc1` (configuration not stated), the TGI in test [1], in test [2], in [3], in [4], in test [5] and in [6] was more than 100 µM in each case. Further, the TGI in test [7] and in test [8] was more than 100 µM in each case.
`O=C1Oc2ccccc2C(=O)/C1=C/N1C(=O)N/C(=C\c2ccccc2O)C1=O`: the TGI in test [1], in test [2], in test [3], in [4], in [5] and in test [6] was more than 100 µM each time. The TGI in test [7] and in test [8] was more than 100 µM in each case.
Regarding `COc1ccc(/C=C2\CN(C)Cc3c2nc(N)nc3-c2ccc(OC)cc2)cc1`, the TGI in [1], in test [2], in [3], in test [9], in test [5] and in test [6] was more than 100 µM each time. Also, the TGI in test [7] and in test [8] was more than 100 µM in each case.
Consider `CO/C(=N\N=C\c1cc(OC)ccc1OC)c1ccncc1`, for which the TGI in test [1], in test [2], in [3], in [4], in test [5] and in test [6] was more than 10 µM throughout. Also, the TGI in test [7] and in test [8] was more than 10 µM in each case.
For the molecule `CC1=NN(C(=O)CSc2nnc(SCC(=O)N3N=C(C)CC3(O)c3ccccc3)s2)C(O)(c2ccccc2)C1` (configuration not stated), the TGI was 47.2 µM in test [1]; more than 100 µM in test [2]; more than 100 µM in test [3]; more than 100 µM in [4]; more than 100 µM in test [5]; more than 100 µM in test [6]. Besides, the TGI in [7] and in test [8] was more than 100 µM in each case.
With `O=C1C2CCCCC2C(=O)N1n1c(Cc2ccc(Cl)cc2)n[nH]c1=O` (configuration not stated), the TGI in test [1], in [2], in test [3], in [4], in [5] and in test [6] was more than 100 µM in each case. The TGI in [7] and in [8] was more than 100 µM in each case.
On to `COC(=O)c1c2c(cc3c1CC1(Cc4ccccc4C1=O)C3)CCC2` (configuration not stated), for which the TGI in test [1] was more than 100 µM; in test [2], more than 100 µM; in test [3], more than 100 µM; in test [4], more than 100 µM; in test [5], 23.4 µM; in test [6], more than 100 µM. The TGI in [7] and in [8] was more than 100 µM throughout.
`COC(=O)c1cn(CCCC(=O)O)nn1`: the TGI in test [1], in [2], in test [3], in test [4], in test [5] and in test [6] was more than 100 µM throughout. Besides, the TGI in test [7] and in [8] was more than 100 µM each time.
For the molecule `O=c1cc(CNC2CCCC2)[nH]c(=O)[nH]1`, the TGI in test [1], in test [2], in [3], in [4], in [5] and in test [6] was more than 100 µM throughout. Besides, the TGI in [7] and in test [8] was more than 100 µM throughout.
For the molecule `C=C(C)[C@@]1(O)O[C@H]2C[C@@]3(C)OC(=CC3=O)/C(C)=C\[C@@H]3OC(=O)[C@@]1(C)[C@H]32`, the TGI was 88.2 µM in test [1]; 24.9 µM in test [2]; 26.7 µM in [3]; 29.1 µM in test [4]; 35.3 µM in test [5]; 19.5 µM in test [6]. For the same molecule, the TGI in test [7] was 29.2 µM; in test [8] it was 20.6 µM.
On to `C=CCNC(=S)Nc1sc2c(c1C(=O)OCC)CC(C)CC2` (configuration not stated), for which the TGI in [1] is more than 100 µM; in test [2], more than 100 µM; in test [3], more than 100 µM; in test [4], 45.4 µM; in [5] it was 35.6 µM; in test [6], more than 100 µM. Moreover, the TGI was more than 100 µM in test [7] and 66.3 µM in [8].
On to `Clc1ccc2c(SCC3CO3)c3ccccc3nc2c1` (configuration not stated), for which the TGI in [1] is more than 100 µM; in test [2] it was 2.9 µM; in test [3], 3.44 µM; in test [4], 3.19 µM; in test [5], 10.7 µM; in test [6] it was 5.24 µM. The results for the TGI in [7] and in test [8] were more than 100 µM and 3.04 µM, respectively.
`C=C(C)[C@@H]1CC[C@]2(C(=O)O)CC[C@]3(C)[C@H](CC[C@@H]4[C@@]5(C)CC(=O)C(C)(C)[C@@H]5CC[C@]43C)[C@@H]12`: the TGI is more than 25 µM in [1]; more than 25 µM in test [2]; more than 25 µM in [3]; more than 25 µM in test [4]; 8.71 µM in test [5]; more than 25 µM in test [6]. The TGI in [7] is more than 25 µM; in test [8] it was 8.83 µM.
As for `CN1C/C(=C\c2cccs2)C2=NC(=S)NC(c3cccs3)C2C1` (configuration not stated), the TGI in test [1], in test [2], in test [3], in test [4], in test [5] and in [6] was more than 100 µM throughout. Moreover, the TGI in [7] and in test [8] was more than 100 µM each time.
For the molecule `O=C(c1ccccc1)c1ccc2c(c1)nc1n2C(c2c(Cl)cccc2Cl)SC1` (configuration not stated), the TGI in [1], in test [2], in [3], in test [4], in test [5] and in test [6] was more than 100 µM each time. In addition, the TGI in test [7] and in [8] was more than 100 µM each time.
On to `O=C1c2c(F)c(F)c(F)c(F)c2SC2=NCCN12`, for which the TGI in test [1] was found to be 28.2 µM; in test [2] it was 17.7 µM; in test [3], 19.8 µM; in [4] it was 23.5 µM; in test [5] it was 19 µM; in test [6], 6.29 µM. Besides, the TGI in test [7] stood at 3.07 µM; in test [8], 5.24 µM.
For the molecule `O=c1[nH]c(=O)n(C2CC(O)C(CO)O2)cc1I` (configuration not stated), the TGI in test [1], in [2], in test [3], in [4], in [5] and in test [6] was more than 100 µM throughout. Further, the TGI in test [7] and in test [8] was more than 100 µM in each case.
For the molecule `C1=C\SS/C=C\SS/C=C\SS/C=C\SS/1`, the TGI in [1], in test [2], in test [3], in test [4], in test [5] and in test [6] was more than 100 µM each time. Besides, the TGI in test [7] and in test [8] was more than 100 µM each time.
For `COc1cccc2c1OC1c3ccccc3OCC1C2` (configuration not stated), the TGI in test [1], in test [2], in test [3], in [4], in test [5] and in test [6] was more than 100 µM in each case. For the same molecule, the TGI in test [7] and in test [8] was more than 100 µM throughout.
For the molecule `CCOC(=O)c1ccc(N=NN(C)C(=O)C(C)N)cc1` (configuration not stated), the TGI in test [1], in [2], in test [3], in test [4], in [5] and in [6] was more than 100 µM in each case. The TGI in test [7] and in test [8] was more than 100 µM throughout.
For the molecule `C=C(C)C(=O)CC[C@@H](C)[C@H]1[C@@H](OC2OC(CO)C(O)C(O)C2O)C[C@@]2(C)[C@@H]3C[C@H](O)C4C(C)(C)[C@@H](OC5OC(CO)C(O)C(O)C5O)CC[C@@]45C[C@@]35CC[C@]12C` (some centres not stated), the TGI in test [1], in [2], in [3], in test [4], in test [5] and in test [6] was more than 100 µM in each case. Also, the TGI in test [7] and in test [8] was more than 100 µM each time.
Take `CCC(C)[C@@H](NCc1ccccc1)[C@H](OCc1ccccc1)[C@@H]1COC(C)(C)O1` (some centres not stated): the TGI in test [1] came to 68.6 µM; in test [2], 37.4 µM; in [3], 46.3 µM; in test [4], 44.4 µM; in [5], 36.6 µM; in test [6], 48.5 µM. Besides, the TGI in [7] came to 38 µM; in test [8], 29.2 µM.
For the molecule `CCOC(=O)c1cn(-c2ccccc2)c(=S)n2c1nc1ccccc12`, the TGI in [1] is 94.9 µM; in test [2], more than 100 µM; in test [3] it was more than 100 µM; in test [4] it was more than 100 µM; in test [5] it was more than 64.8 µM; in test [6], more than 100 µM. Moreover, the TGI in test [7] and in test [8] was more than 100 µM throughout.
Turning to `C=CCC1(O)c2ccccc2C(=O)c2c(O)ccc(O)c21` (configuration not stated), the TGI in test [1] is 56.9 µM; in test [2] it was more than 100 µM; in [3], 31.8 µM; in [4], 26.3 µM; in [5], 26.9 µM; in test [6] it was more than 100 µM. The figures for the TGI in test [7] and in test [8] were more than 50.9 µM and 27.3 µM, respectively.
With `CC(C)(C)OC(=O)CN1CCNCCNCC1`, the TGI in test [1], in [2], in test [3], in [4], in [5] and in test [6] was more than 100 µM throughout. The TGI in test [7] and in [8] was more than 100 µM in each case.
`C1OCC2S[C@@H]3COCO[C@@H]3C2O1` (some centres not stated): the TGI in [1], in test [3], in [9], in test [5], in test [7] and in test [8] was more than 100 µM each time.
Take `CC[n+]1cnc(N)c2c(-c3ccc(Cl)cc3)cn(-c3ccc(C)cc3)c21`: the TGI in [1] came out at 26.7 µM; in test [2], 26.5 µM; in test [3] it was 23.5 µM; in test [4], 3.35 µM; in test [5], 17.1 µM; in [6] it was 30.5 µM. Further, the TGI in [7] was determined as 25.9 µM; in test [8], 21.3 µM.
As to `CCOC(=O)CCCn1nnc(C(=O)OCC)c1C(=O)OCC`, the TGI in test [1], in test [2], in [3], in test [4], in test [5] and in test [6] was more than 100 µM each time. Moreover, the TGI in [7] and in test [8] was more than 100 µM in each case.
On to `O=C1c2ccccc2C2CNC1(O)c1ccccc12` (configuration not stated), for which the TGI in test [1], in [2], in test [3], in [4], in test [5] and in test [6] was more than 100 µM in each case. The TGI in [7] and in test [8] was more than 100 µM each time.
Take `C1CC2=C(C1)[Se]C(=C1Sc3nsnc3S1)[Se]2`: the TGI in test [1], in [2], in test [3], in [4], in test [5] and in test [6] was more than 100 µM in each case. Besides, the TGI in [7] and in test [8] was more than 100 µM in each case.
`c1ccc(CNC2CC(NCc3ccccn3)CC(NCc3ccccn3)C2)nc1` (configuration not stated): the TGI in test [1] is 15.7 µM and 13.3 µM and 16.3 µM; in test [2], 10.1 µM and 11.1 µM and 22.5 µM; in test [3], 9.95 µM and 5.87 µM and 6.09 µM; in [4], 6.31 µM and 8.62 µM and 3.65 µM; in test [5], 4.02 µM and 4.61 µM and 3.21 µM; in [6], 41.7 µM and 25 µM and 32.9 µM. Moreover, the TGI was 6.95 µM and 14.5 µM and 7.77 µM in test [7]; 5.27 µM and 7.2 µM and 3.68 µM in test [8]. Besides, the GI50 in test [4] is 1.89 µM; in test [7], 2.62 µM and 5.4 µM and 2.83 µM; in test [8], 1.86 µM.
